Activity calls are given as the source filed them.
Experiments:
Fatty acid synthase [1] = target: T1, Fatty acid synthase (Homo sapiens, UniProt P49327); assay: inhibition of human FAS-TE enzyme activity – biochemical, endpoint fluorescence intensity, uHTS hits, dose response (AID 624327); format: functional;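 also: fluorescence from hydrolysis of an O-methyl fluorescein acyl ester substrate by the enzyme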
Fatty acid synthase [2] = target: T1, Fatty acid synthase; assay: inhibition of human FAS-TE enzyme activity – biochemical, kinetic fluorescence intensity, dose response (AID 624326); format: functional;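 also: rate of fluorescence rise from hydrolysis of a fluorogenic O-methyl fluorescein ester substrate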
[3] = loss of viability in HepG2 cells – cell-based, CellTiter-Glo, cherry-picked, cytotoxicity control for Shn3 inhibitor project, dose response (AID 624134); format: functional
[4] = target: T2, Heat shock factor protein 1 (Mus musculus, UniProt P38532); assay: decrease of HSF1-responsive luciferase luminescence – cell-based, NIH3T3, dose retest, confirmation (AID 2382); format: functional;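 also: NIH3T3 fibroblasts with HSF1-driven luciferase reporter stressed by proteasome inhibitor MG132; luminescence from HSF1-driven luciferase expression after 8 hours of MG132 stress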
T2 sequence (P38532 whole entry): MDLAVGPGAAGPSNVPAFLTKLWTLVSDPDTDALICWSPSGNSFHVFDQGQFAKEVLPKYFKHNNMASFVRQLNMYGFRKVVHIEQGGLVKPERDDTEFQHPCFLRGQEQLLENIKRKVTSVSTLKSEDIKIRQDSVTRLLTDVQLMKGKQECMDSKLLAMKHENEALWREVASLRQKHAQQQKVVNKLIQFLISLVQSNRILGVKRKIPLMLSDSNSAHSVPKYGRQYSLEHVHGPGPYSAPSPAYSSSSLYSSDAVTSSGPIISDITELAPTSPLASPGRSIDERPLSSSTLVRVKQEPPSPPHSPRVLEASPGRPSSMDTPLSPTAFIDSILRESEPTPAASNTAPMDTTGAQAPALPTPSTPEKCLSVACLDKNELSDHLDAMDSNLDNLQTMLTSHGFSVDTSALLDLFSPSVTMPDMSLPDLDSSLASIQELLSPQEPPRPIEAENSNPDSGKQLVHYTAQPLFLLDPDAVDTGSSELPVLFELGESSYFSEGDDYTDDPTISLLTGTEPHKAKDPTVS

[5] = non-specific 3'UTR reporter inhibition in Clone20-Shn3RL – cell-based, Renilla luciferase, cherry-picked, counter-screen for Shn3 inhibitor project, dose response (AID 624133); format: functional
[6] = target: Serine/threonine-protein phosphatase PP1-alpha catalytic subunit (Homo sapiens, UniProt P62136); assay: inhibition of protein phosphatase 1 activity – biochemical, fluorescence, dose response (AID 2394)
Caspase-3 = target: T3, Caspase-3 (Homo sapiens, UniProt P42574); format: functional;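 also: Dose-response selectivity test against caspase-3 for candidate inhibitors of sentrin-specific proteases (SENPs)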
T3 sequence (P42574 whole entry): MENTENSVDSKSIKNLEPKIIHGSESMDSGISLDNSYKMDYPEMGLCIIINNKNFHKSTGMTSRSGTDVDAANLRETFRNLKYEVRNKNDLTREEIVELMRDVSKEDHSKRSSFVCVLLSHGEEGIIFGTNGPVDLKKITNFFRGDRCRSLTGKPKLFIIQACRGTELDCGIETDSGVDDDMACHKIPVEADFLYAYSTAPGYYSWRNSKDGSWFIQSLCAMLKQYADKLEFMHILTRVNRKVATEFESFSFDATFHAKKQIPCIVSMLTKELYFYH

Genome polyprotein = Genome polyprotein (dengue virus type 2, UniProt P29990); assay: flavivirus cap methylation enzyme inhibition – biochemical, confirmation dose response, primary screen (AID 588689); format: functional
[7] = blockers of HIV-1 envelope-mediated cell-cell fusion – cherry-pick, dose response (AID 652057); format: functional, cell-based
[8] = target: T4, RNA-binding protein pos-1 (Caenorhabditis elegans, UniProt G5EF15); assay: disruptors of C. elegans POS-1 RNA interaction – biochemical, fluorescence polarization, dose response (AID 1964);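 also: purified POS-1 fused to maltose binding protein made in E. coli; potency of compounds blocking POS-1 binding to fluorescent RNA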
T4 sequence (G5EF15 whole entry): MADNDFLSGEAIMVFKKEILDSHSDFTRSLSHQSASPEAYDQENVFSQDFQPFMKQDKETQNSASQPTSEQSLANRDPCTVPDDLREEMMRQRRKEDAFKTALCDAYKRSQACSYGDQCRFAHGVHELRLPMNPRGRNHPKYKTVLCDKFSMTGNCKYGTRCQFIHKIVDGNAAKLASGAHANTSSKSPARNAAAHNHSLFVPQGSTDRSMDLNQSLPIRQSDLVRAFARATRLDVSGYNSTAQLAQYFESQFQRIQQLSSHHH

[9] = NIH3T3 cell viability loss – ATP luminescence, mouse fibroblasts, counter-screen, dose response (AID 2010); format: functional, cell-based;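 also: cells exposed to compound for about 90 hours before reading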
[10] = blockers of HIV-1 ZM109 envelope-driven cell-cell fusion – HeLa effector, CEM target cells, luciferase, cherry-pick, dose response (AID 652058); format: functional, cell-based;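 also: luciferase signal from HIV-1 Env mediated cell-cell fusion of effector and target cells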
Hexokinase HKDC1 = target: T5, Hexokinase HKDC1 (Homo sapiens, UniProt Q2TB90); assay: activation of HKDC1 glucose phosphorylation – biochemical, W721R variant, dose response (AID 504730); format: functional
T5 sequence (Q2TB90 whole entry): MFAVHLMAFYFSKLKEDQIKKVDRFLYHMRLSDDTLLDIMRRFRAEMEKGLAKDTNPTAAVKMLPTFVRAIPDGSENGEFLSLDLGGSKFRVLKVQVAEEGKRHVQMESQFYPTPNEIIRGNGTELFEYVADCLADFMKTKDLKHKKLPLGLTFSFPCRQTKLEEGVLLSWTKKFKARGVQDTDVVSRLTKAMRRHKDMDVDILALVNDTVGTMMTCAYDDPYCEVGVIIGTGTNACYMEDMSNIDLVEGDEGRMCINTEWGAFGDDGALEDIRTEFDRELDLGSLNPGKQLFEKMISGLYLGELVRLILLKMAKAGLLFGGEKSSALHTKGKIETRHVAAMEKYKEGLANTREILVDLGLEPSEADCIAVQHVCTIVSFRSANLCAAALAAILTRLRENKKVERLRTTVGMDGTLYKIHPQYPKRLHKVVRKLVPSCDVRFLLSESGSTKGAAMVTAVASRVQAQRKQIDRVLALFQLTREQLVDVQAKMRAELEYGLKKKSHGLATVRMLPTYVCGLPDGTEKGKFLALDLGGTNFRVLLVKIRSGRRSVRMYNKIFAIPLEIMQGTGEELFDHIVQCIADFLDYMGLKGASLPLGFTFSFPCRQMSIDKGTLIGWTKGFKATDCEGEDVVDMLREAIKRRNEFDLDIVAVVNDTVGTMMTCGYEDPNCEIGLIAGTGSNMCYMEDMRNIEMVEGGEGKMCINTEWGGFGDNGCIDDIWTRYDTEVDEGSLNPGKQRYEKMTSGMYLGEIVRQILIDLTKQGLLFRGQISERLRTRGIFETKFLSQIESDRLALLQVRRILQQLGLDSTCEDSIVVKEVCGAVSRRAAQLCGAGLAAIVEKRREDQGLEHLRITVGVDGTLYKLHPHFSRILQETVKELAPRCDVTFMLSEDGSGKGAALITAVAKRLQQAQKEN

[11] = target: T6, Voltage-gated N-type calcium channel alpha-1B subunit/Amyloid beta A4 precursor protein-binding family A member 1 (Homo sapiens, UniProt Q00975+Q02410); format: protein assay
T6 sequence (Q00975 whole entry): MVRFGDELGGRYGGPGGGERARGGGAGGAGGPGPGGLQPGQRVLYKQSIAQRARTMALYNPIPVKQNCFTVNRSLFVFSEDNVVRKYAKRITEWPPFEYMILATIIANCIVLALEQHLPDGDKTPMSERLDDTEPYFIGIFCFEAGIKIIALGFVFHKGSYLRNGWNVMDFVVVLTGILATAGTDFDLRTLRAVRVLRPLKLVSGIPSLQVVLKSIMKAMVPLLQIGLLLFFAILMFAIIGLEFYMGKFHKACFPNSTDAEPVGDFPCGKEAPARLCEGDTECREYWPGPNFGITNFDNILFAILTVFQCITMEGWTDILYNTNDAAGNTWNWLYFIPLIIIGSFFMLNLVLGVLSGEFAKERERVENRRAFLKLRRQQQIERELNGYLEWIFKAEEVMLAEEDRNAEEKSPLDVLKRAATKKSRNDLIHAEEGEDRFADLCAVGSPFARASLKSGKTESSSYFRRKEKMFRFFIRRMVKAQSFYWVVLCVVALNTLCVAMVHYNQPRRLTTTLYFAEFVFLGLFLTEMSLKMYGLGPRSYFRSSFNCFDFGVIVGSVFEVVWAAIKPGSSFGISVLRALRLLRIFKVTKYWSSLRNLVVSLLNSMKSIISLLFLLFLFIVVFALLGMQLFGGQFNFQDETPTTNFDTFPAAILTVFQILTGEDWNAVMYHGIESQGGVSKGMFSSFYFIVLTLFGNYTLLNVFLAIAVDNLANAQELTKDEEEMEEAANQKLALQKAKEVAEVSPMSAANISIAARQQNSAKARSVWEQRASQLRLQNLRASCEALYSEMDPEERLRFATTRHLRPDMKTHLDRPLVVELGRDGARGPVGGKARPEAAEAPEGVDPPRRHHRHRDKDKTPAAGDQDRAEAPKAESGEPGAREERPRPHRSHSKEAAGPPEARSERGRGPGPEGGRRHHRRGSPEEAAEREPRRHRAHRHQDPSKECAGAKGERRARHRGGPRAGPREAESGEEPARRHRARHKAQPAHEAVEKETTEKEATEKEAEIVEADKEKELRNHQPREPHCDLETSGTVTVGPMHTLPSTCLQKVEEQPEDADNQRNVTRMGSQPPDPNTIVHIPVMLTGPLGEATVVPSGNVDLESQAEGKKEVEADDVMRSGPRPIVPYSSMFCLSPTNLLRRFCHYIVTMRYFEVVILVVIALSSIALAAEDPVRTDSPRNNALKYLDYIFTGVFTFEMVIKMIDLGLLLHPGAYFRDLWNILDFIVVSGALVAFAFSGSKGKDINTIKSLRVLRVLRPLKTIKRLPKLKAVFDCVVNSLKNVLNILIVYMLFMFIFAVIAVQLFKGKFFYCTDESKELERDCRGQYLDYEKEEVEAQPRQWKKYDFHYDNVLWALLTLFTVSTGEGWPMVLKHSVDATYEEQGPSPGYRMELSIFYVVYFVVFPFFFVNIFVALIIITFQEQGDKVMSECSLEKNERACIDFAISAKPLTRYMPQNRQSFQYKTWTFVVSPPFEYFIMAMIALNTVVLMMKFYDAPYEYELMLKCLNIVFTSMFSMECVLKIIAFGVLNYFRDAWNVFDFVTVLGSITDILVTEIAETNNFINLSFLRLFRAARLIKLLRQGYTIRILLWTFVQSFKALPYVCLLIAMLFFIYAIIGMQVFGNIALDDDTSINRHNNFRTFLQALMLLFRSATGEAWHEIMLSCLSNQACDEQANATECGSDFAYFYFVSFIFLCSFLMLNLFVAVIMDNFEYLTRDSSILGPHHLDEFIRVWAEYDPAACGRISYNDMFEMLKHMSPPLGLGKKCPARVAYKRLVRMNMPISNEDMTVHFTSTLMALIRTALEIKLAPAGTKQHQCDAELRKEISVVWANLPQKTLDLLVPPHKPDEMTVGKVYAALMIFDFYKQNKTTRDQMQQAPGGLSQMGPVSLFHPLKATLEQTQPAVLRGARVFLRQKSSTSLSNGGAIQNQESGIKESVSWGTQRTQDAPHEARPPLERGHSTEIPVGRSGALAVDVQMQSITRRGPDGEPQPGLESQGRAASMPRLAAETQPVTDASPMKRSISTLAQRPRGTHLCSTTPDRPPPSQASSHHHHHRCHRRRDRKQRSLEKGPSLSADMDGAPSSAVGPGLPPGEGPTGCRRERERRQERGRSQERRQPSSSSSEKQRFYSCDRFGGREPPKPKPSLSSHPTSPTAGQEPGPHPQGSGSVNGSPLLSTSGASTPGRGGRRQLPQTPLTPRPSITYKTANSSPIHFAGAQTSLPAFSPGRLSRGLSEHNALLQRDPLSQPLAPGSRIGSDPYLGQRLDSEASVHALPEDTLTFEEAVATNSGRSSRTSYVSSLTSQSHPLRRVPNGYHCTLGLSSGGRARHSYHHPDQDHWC
T6 sequence (Q02410 whole entry): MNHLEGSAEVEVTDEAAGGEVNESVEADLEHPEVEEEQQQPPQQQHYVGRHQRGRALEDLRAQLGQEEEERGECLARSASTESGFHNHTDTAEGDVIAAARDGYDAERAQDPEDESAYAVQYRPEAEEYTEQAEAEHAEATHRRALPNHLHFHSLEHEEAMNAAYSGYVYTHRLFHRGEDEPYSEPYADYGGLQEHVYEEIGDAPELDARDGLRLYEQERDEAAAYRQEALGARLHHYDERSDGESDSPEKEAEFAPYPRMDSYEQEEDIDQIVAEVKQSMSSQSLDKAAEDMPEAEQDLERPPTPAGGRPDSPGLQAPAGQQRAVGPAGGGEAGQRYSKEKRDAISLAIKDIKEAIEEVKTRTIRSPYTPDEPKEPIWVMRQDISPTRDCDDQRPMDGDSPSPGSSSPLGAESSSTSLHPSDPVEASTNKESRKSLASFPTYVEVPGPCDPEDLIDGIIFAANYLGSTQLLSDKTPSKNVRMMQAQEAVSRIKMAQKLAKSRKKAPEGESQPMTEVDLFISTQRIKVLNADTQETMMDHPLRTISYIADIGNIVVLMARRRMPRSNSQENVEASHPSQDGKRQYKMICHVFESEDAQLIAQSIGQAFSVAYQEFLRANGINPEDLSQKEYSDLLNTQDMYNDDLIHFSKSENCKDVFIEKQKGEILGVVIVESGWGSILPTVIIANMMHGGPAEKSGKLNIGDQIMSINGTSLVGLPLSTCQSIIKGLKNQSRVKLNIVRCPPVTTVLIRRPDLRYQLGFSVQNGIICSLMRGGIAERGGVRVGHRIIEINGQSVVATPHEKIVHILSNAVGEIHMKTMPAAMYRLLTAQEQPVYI

[12] = viability of PTEN-deleted HCT116 cells – cell-based, HCT116 PTEN knockout, dose response (AID 1047); format: functional;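 also: HCT116 colon tumor cells with PTEN knocked out; cells exposed to compound for 60 hours before readout; potency for loss of cell viability measured by luminescence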
[13] = target: Peroxisome proliferator-activated receptor gamma/Nuclear receptor coactivator 3 (Homo sapiens, UniProt P37231); format: functional;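 also: agonist potency for raising coactivator recruitment to the receptor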
Peroxisome proliferator-activated receptor gamma/Nuclear receptor coactivator 3, sequence (P37231 whole entry): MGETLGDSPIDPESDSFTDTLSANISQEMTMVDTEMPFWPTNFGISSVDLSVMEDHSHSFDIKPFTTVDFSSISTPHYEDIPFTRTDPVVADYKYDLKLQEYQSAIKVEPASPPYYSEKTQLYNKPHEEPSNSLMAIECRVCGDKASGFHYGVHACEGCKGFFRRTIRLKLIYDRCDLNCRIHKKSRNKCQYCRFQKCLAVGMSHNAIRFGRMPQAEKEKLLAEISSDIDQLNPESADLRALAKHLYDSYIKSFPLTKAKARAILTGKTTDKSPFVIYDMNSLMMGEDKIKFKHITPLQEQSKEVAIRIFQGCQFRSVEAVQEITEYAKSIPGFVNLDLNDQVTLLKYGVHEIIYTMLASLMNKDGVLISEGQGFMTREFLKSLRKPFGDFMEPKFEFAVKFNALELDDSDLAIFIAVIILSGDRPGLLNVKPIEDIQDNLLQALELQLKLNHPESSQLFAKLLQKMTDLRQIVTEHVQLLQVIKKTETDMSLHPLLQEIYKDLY
Peroxisome proliferator-activated receptor gamma/Nuclear receptor coactivator 3, sequence (Q9Y6Q9 whole entry, further chain): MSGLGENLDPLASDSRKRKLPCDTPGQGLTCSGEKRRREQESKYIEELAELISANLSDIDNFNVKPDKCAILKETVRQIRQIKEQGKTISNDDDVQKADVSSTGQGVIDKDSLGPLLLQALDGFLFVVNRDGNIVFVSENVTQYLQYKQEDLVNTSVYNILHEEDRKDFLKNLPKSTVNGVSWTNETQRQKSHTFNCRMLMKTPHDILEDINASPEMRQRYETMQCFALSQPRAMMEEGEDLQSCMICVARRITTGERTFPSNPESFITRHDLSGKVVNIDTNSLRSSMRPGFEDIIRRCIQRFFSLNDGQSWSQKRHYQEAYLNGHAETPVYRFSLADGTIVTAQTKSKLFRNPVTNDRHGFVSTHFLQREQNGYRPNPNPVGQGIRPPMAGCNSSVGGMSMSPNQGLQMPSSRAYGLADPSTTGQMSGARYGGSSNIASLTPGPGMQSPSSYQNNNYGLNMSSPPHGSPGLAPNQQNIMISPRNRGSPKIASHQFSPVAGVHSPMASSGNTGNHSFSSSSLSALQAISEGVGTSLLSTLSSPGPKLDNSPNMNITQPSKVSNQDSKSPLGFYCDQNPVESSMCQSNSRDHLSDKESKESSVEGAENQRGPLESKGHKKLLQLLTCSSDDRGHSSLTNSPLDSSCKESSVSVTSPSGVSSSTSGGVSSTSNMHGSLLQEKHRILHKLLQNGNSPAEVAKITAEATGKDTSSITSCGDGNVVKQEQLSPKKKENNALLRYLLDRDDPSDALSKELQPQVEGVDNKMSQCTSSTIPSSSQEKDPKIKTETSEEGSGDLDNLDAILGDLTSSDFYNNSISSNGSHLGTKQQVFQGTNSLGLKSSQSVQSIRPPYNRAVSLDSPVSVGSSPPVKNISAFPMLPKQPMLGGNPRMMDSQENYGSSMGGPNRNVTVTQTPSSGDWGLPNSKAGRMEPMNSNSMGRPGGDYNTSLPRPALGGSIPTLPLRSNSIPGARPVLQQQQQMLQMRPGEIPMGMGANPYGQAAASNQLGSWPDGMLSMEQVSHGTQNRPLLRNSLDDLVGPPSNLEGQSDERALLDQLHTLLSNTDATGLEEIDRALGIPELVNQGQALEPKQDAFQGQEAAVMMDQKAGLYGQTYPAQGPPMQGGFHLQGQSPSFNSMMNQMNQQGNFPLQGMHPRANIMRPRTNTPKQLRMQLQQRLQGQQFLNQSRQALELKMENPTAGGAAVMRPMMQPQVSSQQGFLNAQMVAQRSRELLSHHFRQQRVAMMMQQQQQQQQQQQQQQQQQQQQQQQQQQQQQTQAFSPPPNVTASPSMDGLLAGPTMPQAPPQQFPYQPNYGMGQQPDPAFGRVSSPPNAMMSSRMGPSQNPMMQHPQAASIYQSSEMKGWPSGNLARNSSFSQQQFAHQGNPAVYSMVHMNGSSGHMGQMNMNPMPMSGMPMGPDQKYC

[14] = viability of HCT116 lacking mutant beta-catenin – cell-based, human colon tumor, dose response (AID 1045); format: functional;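 also: HCT116 colon tumor cells with beta catenin knocked out; cells exposed to compound for 60 hours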
[15] = target: T6, Voltage-gated N-type calcium channel alpha-1B subunit/Amyloid beta A4 precursor protein-binding family A member 1; format: protein assay; remark: listed apart in the source

## O=C(Nc1ccccc1Cl)/C(Cl)=C(\Cl)[S+]([O-])c1ccccc1 (centres undefined)
Fatty acid synthase [1]
  IC50: 4.66 µM (active)
Fatty acid synthase [2]
  IC50: 3.28 µM (active)
[3]
  AC50: 10.8 µM (active)
[4]
  EC50: 3.56 µM (active)
[5]
  AC50: 5.77 µM (active)

## O=C(NC1(O)C(=O)c2ccccc2C1=O)c1ccccc1
[6]
  IC50: 49 µM (not active)
Caspase-3
  IC50: 69.9 µM (active)

## Cc1ccc(C)c(S(=O)(=O)/N=C2\C=C(NS(=O)(=O)c3ccccc3)C(=O)c3ccccc32)c1
Genome polyprotein
  IC50: 97.8 µM (active)

## CCCCCCCCCCCCCCCCn1cc[n+](C)c1
[7]
  AC50: 22 µM (active)
[8]
  EC50: > 300 µM (not active)
[9]; NIH3T3
  EC50: 8.99 µM (active)
[9]; nih3t3
  EC50: 8.81 µM (active)
[10]
  AC50: 23.5 µM (active)

## Cc1cc(C)nc(/N=c2/ssnc2Cl)c1
Hexokinase HKDC1
  EC50: 43.1 µM (inactive)
[11]
  IC50: 10.6 µM (active)
[12]
  EC50: 52.3 µM (active)
[13]
  EC50: > 79.4 µM (not active)
[14]
  EC50: 25.8 µM (active)
[15]
  IC50: > 50 µM (inactive)

Source: ChEMBL document CHEMBL1201862, “PubChem BioAssay data set” (2004)
